Reference: patent US20050026236A1, “PDE 10 cell-based assay and sequences” (Pfizer Inc, priority 2001, published 2005)

Experiments:
[1] = tested on: primary striatal medium spiny neurons; assay: cGMP accumulation in SNP-stimulated striatal cultures; format: cell-based, rat; details: for EC200 (concentration giving a 2-fold increase in cGMP): concentration yielding a 2-fold increase in cGMP, SNP 100 μM for 2 min after 20 min inhibitor incubation
Method: (§1) Striatal cultures were prepared as previously described (Ventimiglia et al., Eur. J. Neurosci. 7: 213-222, 1995). Briefly, striata (caudate nucleus and putamen) were dissected from E17 rats, dissociated to produce a single cell suspension, and plated at a density of 5×10^4 neurons/well in 96-well plates coated with poly-L-ornithine/laminin (Cat. No. 354657, BD Biosciences, Bedford, Mass.). The cells were plated in Neurobasal medium (Cat. No. 21103-049, Gibco BRL, Grand Island, N.Y.) with B27 supplements (Cat. No. 17504-010, Gibco BRL) and human recombinant brain-derived neurotrophic factor (BDNF) (100 ng/ml) (Cat. No. 248-BD, R & D Systems, Minneapolis, Minn.). Striatal medium spiny neurons comprised 50-60% of cells in these cultures, as confirmed by a GABA immunoreactivity protocol as previously described (Ventimiglia et al., 1995, supra). Expression of PDE10A mRNA in these cultures was confirmed by RNase protection assay, as further described below.
(§2) After approximately four days in vitro, the striatal cells were washed with Ca^2+/Mg^2+ free phosphate buffered saline (pH 7.4) and preincubated for an hour in a buffer containing Ca^2+/Mg^2+ free phosphate buffered saline, 30 mM HEPES (pH 7.4), 1 mM CaCl2, 1 mg/ml dextrose, and 5 mM MgCl2. The striatal cells were then exposed to one of the PDE inhibitors and incubated for 20 min. at 37° C. When measuring cGMP, the neurons were stimulated with sodium nitroprusside (SNP) (100 μM) for two min. after the 20 min. incubation with the PDE inhibitor.
(§3) The cells were lysed using a 9:1 combination of SPA direct screening Assay Buffer (0.05 M acetate with 0.01% sodium azide) and Buffer A (133 mg/ml dodecyltrimethylammonium bromide), and the lysates were frozen on dry ice.

[2] = tested on: primary striatal medium spiny neurons; assay: cAMP accumulation in forskolin-stimulated striatal cultures; format: cell-based, rat; details: ratio of EC200 values in striatal cultures
Method: as §1, §2, §3

PDE10A [3] = assay: Papaverine inhibition of PDE10A, SPA-based PDE assay; format: biochemical
Method: Phosphodiesterases 7-11 were generated from full length recombinant clones transfected into SF9 cells as previously described (Fisher et al., Biochem. Biophys. Res. Comm. 246: 570-577, 1998; Fisher et al., J. Biol. Chem. 273: 15559-15564, 1998b; Soderling et al., PNAS 96: 7071-7076, 1999; Fawcett et al., PNAS 97: 3702-3707, 2000). The enzymes were purified by FPLC from the soluble fraction of cell lysates as described in Boolell et al., supra.
PDE activity was measured using a SPA-based method as previously described (Fawcett et al., 2000). Assays were conducted using a fixed amount of PDE10A enzyme in the presence of varying inhibitor concentrations. […] The final assay volume was adjusted to 100 μl with assay buffer (20 mM Tris-HCl pH 7.4, 5 mM MgCl2, 1 mg/ml bovine serum albumin).
Reactions were initiated with the addition of enzyme. Samples were incubated for 30-60 min. at 30° C. to give <30% substrate turnover and terminated with 50 μl yttrium silicate SPA beads (Amersham) containing 3 mM of the appropriate unlabelled cyclic nucleotide. Plates were re-sealed and shaken for 20 min.; the beads were then allowed to settle for 30 min. in the dark and then counted on a TopCount plate reader (Packard, Meriden, Conn.). Radioactivity units were converted to percent activity as compared to an uninhibited control (100%). […]

PDE1 = details: substrate at 1/3 Km
PDE7 = details: substrate at 1/3 Km
[4] = tested on: primary striatal medium spiny neurons; assay: cGMP accumulation in cultured primary striatal medium spiny neurons; format: cell-based, rat; details: 100 μM; SNP-stimulated
PDE10A [5] = details: cited from earlier work
[6] = tested on: primary striatal medium spiny neurons; assay: cAMP accumulation in cultured primary striatal medium spiny neurons; details: Rattus norvegicus, Neuron

Q: Which EC200 (concentration giving a 2-fold increase in cGMP) ([1]; Rattus norvegicus, Neuron) does the source give for `CC(C)Cn1c(=O)n(C)c(=O)c2[nH]cnc21` [IBMX, 3-isobutyl-1-methylxanthine] here?
A: The EC200 (concentration giving a 2-fold increase in cGMP) was 19 µM.

Q: And the EC200 (concentration giving a 2-fold increase in cGMP) [1]?
A: The EC200 (concentration giving a 2-fold increase in cGMP) was 19.5 µM.

Q: What about the “cAMP EC200/cGMP EC200” value [2] of the same compound?
A: Its value is 1.5.

Q: Which mode of inhibition (PDE10A [3]) does the source give for `COc1ccc(Cc2nccc3cc(OC)c(OC)cc23)cc1OC` [Papaverine] here?
A: The mode of inhibition was “competitive inhibitor”.

Q: What about the “cGMP levels elevated over cultures stimulated with SNP alone (maximal effect)” value ([1]; 100 μM papaverine, SNP 100 μM) of the same compound?
A: Its value is 5 fold.

Q: What about the “effect on cGMP levels in unstimulated cells” value ([1]; cells unstimulated by SNP or forskolin) of the same compound?
A: Its value is “did not affect”.

Q: And the IC50 (PDE1)?
A: The IC50 was 37 µM.

Q: What about the IC50 (PDE7) of the same compound?
A: The IC50 was 27 µM.

Q: With `COc1ccc(C2CNC(=O)C2)cc1OC1CCCC1` (stereo not shown) [Rolipram, rolipram] as the compound, how does the EC200 (concentration giving a 2-fold increase in cGMP) ([1]; Rattus norvegicus, Neuron) read?
A: Its EC200 (concentration giving a 2-fold increase in cGMP) is 29.2 ± 10.3 µM.

Q: And the “concentration needed to double the rate of cGMP accumulation relative to cAMP EC200” value ([1]; higher than cAMP EC200 of 2.5 μM)?
A: Its value is 10 fold.

Q: What about the “cAMP EC200/cGMP EC200” value [2] of the same compound?
A: The value was 0.09.

Q: What does the source list for `CCCOc1ccccc1-c1nc2nn[nH]c2c(=O)[nH]1` [Zaprinast, zaprinast]?
A: EC200 (concentration giving a 2-fold increase in cGMP) ([1]; Rattus norvegicus, Neuron): > 100 µM; EC200 (concentration giving a 2-fold increase in cGMP) [1]: 98.3 ± 10.3 µM; cAMP EC200/cGMP EC200 [2]: 1

Q: Which “effect on level of cGMP” value [4] does the source give for `CCCOc1ccccc1-c1nc2nn[nH]c2c(=O)[nH]1` [Zaprinast] here?
A: Its value is “did not quite double the level of cGMP”.

Q: For `Nc1nc2c(ncn2[C@@H]2O[C@@H]3COP(=O)(O)O[C@H]3[C@H]2O)c(=O)[nH]1` [cGMP, cyclic guanine 3′5′-monophosphate], which “greater Vmax for cGMP over cAMP” value (PDE10A [5]; Fujishige et al., 1999) is on record?
A: The value was “approximately 5 fold”.

Q: And the Km (PDE10A [5]; read-out: Km for cGMP)?
A: Its Km is 3000 nM.

Q: For `C=C[C@@]1(C)CC(=O)[C@]2(O)[C@@]3(C)[C@@H](O)CCC(C)(C)[C@@H]3[C@H](O)[C@H](OC(C)=O)[C@@]2(C)O1` [forskolin], which fold induction at 1 µM ([6]; read-out: increase over basal cAMP) is on record?
A: Its fold induction at 1 µM is 2 to 3.

Q: And the activation at 1 µM ([6]; read-out: per cent of the maximal cAMP response)?
A: Its activation at 1 µM is 20 to 25%.
